No end group written: not given here.
Experiments:
Assay type in all cases: cell-based
[1] = tested on: E. coli
Experimental: (§1) Regarding the antimicrobial polypeptide of the present invention (samples 1 to 33) and the polypeptides of comparative samples 1 to 3, the antimicrobial activities (minimum inhibitory concentration: MIC) with respect to gram-negative bacteria (E. coli) and gram-positive bacteria (S. aureus) were determined by a liquid medium dilution technique using a 96-well microplate.
(§2) More specifically, liquid bouillon media (“NUTRIENT BROTH Dehydraged” manufactured by DIFCO) in a polypeptide concentration of 500, 250, 125, 62.5, 31.3, 15.6, 7.8, 3.9, 1.9, 1.0 and 0.5 μM were prepared, and filled in a 96-well microplate. On the other hand, bacteria suspension (about 2×10^6 cells/mL) that had been stationary cultured at 37° C. for 18 hours with LB Broth, Lennox (manufactured by DIFCO) were inoculated to each well of the 96-well microplate in an equal amount to that of the pharmaceutical solution (the above-described polypeptide-containing bouillon medium). After inoculation, culture was started in an incubator at 37° C., and it was examined based on the turbidity after 24 hours and 48 hours whether or not bacteria are present. The minimum of the polypeptide concentrations in which no increase in the turbidity caused by bacteria at the time of measurement was observed was defined as MIC in this example.
(§3) The unit of MIC in Table 2 is μM. […]

[2] = tested on: S. aureus
Experimental: as §1, §2, §3

[3] = tested on: Bacillus brevis IFO15304
Experimental: as §2
(§4) Next, regarding the polypeptides of the samples 16, 17, 10, 14, and 20, the same antimicrobial test (MIC measurement test) as in Example 2 was performed with respect to various bacteria (see Table 3), and the antimicrobial spectra of these polypeptides were evaluated.

[4] = tested on: Bacillus cereus IFO15305; conditions: IFO15305, 24 h
Experimental: as §2, §4

[5] = tested on: Bacillus cereus IFO3001; conditions: IFO3001, 24 h
Experimental: as §2, §4

[6] = tested on: Bacillus pumilus IFO3813
Experimental: as §2, §4

[7] = tested on: Bacillus subtilis ATCC6633; conditions: ATCC6633, 24 h
Experimental: as §2, §4

[8] = tested on: Bacillus subtilis IFO3134; conditions: IFO3134, 24 h
Experimental: as §2, §4

[9] = tested on: Escherichia coli IFO12713; conditions: IFO12713, 24 h
Experimental: as §2, §4

[10] = tested on: Escherichia coli O157:H7 sakai; conditions: O157:H7, 24 h
Experimental: as §2, §4

[11] = tested on: Klebsiella pneumoniae ATCC4352; conditions: ATCC4352, 24 h
Experimental: as §2, §4

[12] = tested on: Micrococcus luteus IFO12708; conditions: IFO12708, 24 h
Experimental: as §2, §4

[13] = tested on: Proteus vulgaris ATCC13315; conditions: ATCC13315, 24 h
Experimental: as §2, §4

[14] = tested on: Pseudomonas aeruginosa ATCC10145; conditions: ATCC10145, 24 h
Experimental: as §2, §4

[15] = tested on: Pseudomonas aeruginosa IFO3080; conditions: IFO3080, 24 h
Experimental: as §2, §4

[16] = tested on: Salmonella enteritidis IFO3313; conditions: IFO3313, 24 h
Experimental: as §2, §4

[17] = tested on: Salmonella typhimurium IFO1324; conditions: murium IFO1324, 24 h
Experimental: as §2, §4

[18] = tested on: Staphylococcus aureus COL (MRSA)
Experimental: as §2, §4

[19] = tested on: Staphylococcus aureus RN450 (*MSSA); conditions: RN450 (*, 24 h)
Experimental: as §2, §4

[20] = tested on: gram-negative bacteria (E. coli) and gram-positive bacteria (S. aureus); assay: antimicrobial test of Example 2, results summed up in words; conditions: summary of Table 2, E. coli and S. aureus
Experimental: as §1, §2

[21] = tested on: Staphylococcus aureus IFO12732; conditions: IFO12732, 24 h
Experimental: as §2, §4

[22] = tested on: Staphylococcus aureus IID1677 (MRSA); conditions: IID1677, 24 h
Experimental: as §2, §4

| Sequence | antimicrobial activity (MIC) E. coli after 48h [1] [µM] | antimicrobial activity (MIC) S. aureus after 24h [2] [µM] | antimicrobial activity (MIC) S. aureus after 48h [2] [µM] | antimicrobial activity after 24 hours: MIC [3] [µM] | antimicrobial activity after 24 hours: MIC [4] [µM] | antimicrobial activity after 24 hours: MIC [5] [µM] | antimicrobial activity after 24 hours: MIC [6] [µM] | antimicrobial activity after 24 hours: MIC [7] [µM] | antimicrobial activity after 24 hours: MIC [8] [µM] | antimicrobial activity after 24 hours: MIC [9] [µM] | antimicrobial activity after 24 hours: MIC [10] [µM] | antimicrobial activity after 24 hours: MIC [11] [µM] | antimicrobial activity after 24 hours: MIC [12] [µM] | antimicrobial activity after 24 hours: MIC [13] [µM] | antimicrobial activity after 24 hours: MIC [14] [µM] | antimicrobial activity after 24 hours: MIC [15] [µM] | antimicrobial activity after 24 hours: MIC [16] [µM] | antimicrobial activity after 24 hours: MIC [17] [µM] | antimicrobial activity after 24 hours: MIC [18] [µM] | antimicrobial activity after 24 hours: MIC [19] [µM] | also measured |
| --- | --- | --- | --- | --- | --- | --- | --- | --- | --- | --- | --- | --- | --- | --- | --- | --- | --- | --- | --- | --- | --- |
| RKKKRKVLALKLAGLDI [sample 14, RKKKRKVLALKLAGLDI] | 3.9 | 1.0 | 1.9 | 128.2 | 64.1 | 32.0 | 4.0 | 1.0 | 1.0 | 8.0 | 8.0 | 32.0 | 4.0 | 64.1 | 32.0 | 16.0 | 32.0 | >256.3 | 16.0 | 16.0 | antimicrobial activity (MIC) E. coli after 24h [1]: 3.9 µM; antimicrobial activities (in words) [20]: high antimicrobial activities |
| RIRKKLRRIRKKLR [sample 17, RIRKKLRRIRKKLR] | 3.9 | 3.9 | 3.9 | >260.3 | >260.3 | >260.3 | 16.3 | 1.0 | 0.5 | 8.1 | 8.1 | 8.1 | 4.1 | 8.1 | 8.1 | 8.1 | 4.1 | 4.1 | 16.3 | 32.5 | antimicrobial activity after 24 hours: MIC [21]: 2.0 µM; antimicrobial activity after 24 hours: MIC [22]: 8.1 µM |
| RKKKRKVRKKKRKV [sample 20, RKKKRKVRKKKRKV] | 1.9 | 1.9 | 1.9 | 133.9 | 133.9 | >267.9 | 16.7 | 2.1 | 4.2 | 8.4 | 8.4 | 4.2 | 8.4 | 8.4 | 4.2 | 4.2 | 4.2 | 8.4 | 33.5 | 33.5 | antimicrobial activity (MIC) E. coli after 24h [1]: 1.9 µM; antimicrobial activity after 24 hours: MIC [21]: 4.2 µM; antimicrobial activity after 24 hours: MIC [22]: 8.4 µM |

Reference: patent publication US7482328B2, “Antimicrobial polypeptide and utilization thereof” (Toagosei Co., Ltd., priority 2002, dated 2009)
